{"source": "patent US10525088B2", "about": "“Lactic acid bacterial immunopotentiating activity-increasing composition and method for increasing immunopotentiating activity of lactic acid bacteria” (Kirin Holdings Kabushiki Kaisha, priority 2014, dated 2020)", "tested_on": "dendritic cells induced from myeloblasts", "experiment": "Interferon-α production by dendritic cells induced from mouse myeloblasts (Flt-3L), cultured with JCM5805 and sample", "format": "cell-based, mice", "conditions": "0.1 (w/v) % JCM5805 + 0.25 (w/v) % sample; myeloblast-derived dendritic cells; 24 hours", "procedure": "Medium was inoculated with 1 ml of the obtained cell suspension and the culture was incubated at 37° C., 5% CO2 in a CO2 incubator for 1 week to induce dendritic cells. […] The samples were the lactic acid bacteria only, sucrose palmitate, and Ryoto Sugar Ester […] (mainly containing sucrose palmitate) (Mitsubishi-Kagaku Foods Corporation)."}
{"substance": "sucrose palmitate", "values": [{"measurement": "change of interferon-α inducing activity of JCM5805 by the sample", "value": "increased"}]}
